Test results: the RepoRT retention time repository
Counter-ions that a name gives are not always drawn.

Assay: RP, Restek Raptor Biphenyl, 100 × 2.1 mm, 2.7 µm, 50 °C, 0.4 mL/min, estimated dead time 0.55 min; A: water + 0.1% formic acid, pH 3; B: methanol + 0.1% formic acid, pH 3; gradient (min/%B) 0/5 1.12/5 6.41/99.5 10.01/99.5
Details: stereoisomer not certain

Row | LC retention time [min] | Compound
1 | 6.44 | CCCCCCCCCCCCCCC(=O)O [Pentadecanoic acid]
2 | 2.88 | O=C(O)C(=O)Cc1ccccc1 [Phenylpyruvic acid]
3 | 6.68 | CC(C)CCCC(C)CCCC(C)CCCC(C)CC(=O)O (stereo not drawn) [Phytanic acid]
4 | 1 | O=C(O)c1cccnc1C(=O)O [QUINOLINATE]
5 | 4.45 | Cc1cc2nc3c(=O)[nH]c(=O)nc-3n(CC(O)C(O)C(O)CO)c2cc1C (stereo not drawn) [RIBOFLAVIN]
6 | 6.18 | CCCCCCC(O)CC=CCCCCCCCC(=O)O (stereo not drawn) [Ricinoleic acid]
7 | 4.59 | CCCCCCSCC(NC(=O)CCC(N)C(=O)O)C(=O)NCC(=O)O (stereo not drawn) [S-HEXYL-GLUTATHIONE]
8 | 4.87 | O=C(O)CCCCCCCCC(=O)O [SEBACATE]
9 | 6.67 | CCCCCCCCCCCCCCCCCC(=O)O [Stearic acid]
10 | 6.13 | CCCCCCCCCCCCCCCCCC(=O)OC(CC(=O)[O-])C[N+](C)(C)C [Stearoyl-L-carnitine]
11 | 0.909 | O=C(O)CCC(=O)O [Succinic acid]
12 | 3.54 | Cn1c(=O)c2[nH]cnc2n(C)c1=O [THEOPHYLLINE]
13 | 3.77 | CSc1ncnc2nc[nH]c12 [THIOPURINE S-METHYLETHER]
14 | 0.837 | Cc1cn(C2CC(O)C(COP(=O)(O)O)O2)c(=O)[nH]c1=O (stereo not drawn) [THYMIDINE-MONOPHOSPHATE]
15 | 2.18 | Cc1cn(C2CC(O)C(CO)O2)c(=O)[nH]c1=O (stereo not drawn) [THYMIDINE]
16 | 1.99 | NC(=O)C1CCCN1C(=O)C(Cc1cnc[nH]1)NC(=O)C1CCC(=O)N1 (stereo not drawn) [THYROTROPIN RELEASING HORMONE]
17 | 2.53 | NC(Cc1c[nH]c2ccccc12)C(=O)O (stereo not drawn) [TRYPTOPHAN]
18 | 0.796 | NC(Cc1ccc(O)cc1)C(=O)O (stereo not drawn) [TYROSINE]
19 | 5.83 | CC(CCC(=O)NCCS(=O)(=O)O)C1CCC2C3C(O)CC4CC(O)CCC4(C)C3CC(O)C12C (stereo not drawn) [Taurocholic acid sodium salt hydrate]
20 | 6.16 | CC(CCC(=O)NCCS(=O)(=O)O)C1CCC2C3CCC4CC(O)CCC4(C)C3CC(O)C12C (stereo not drawn) [Taurodeoxycholic acid]

Row | LC retention time [min] | Compound
21 | 6.47 | CC(CCC(=O)NCCS(=O)(=O)O)C1CCC2C3CCC4CC(O)CCC4(C)C3CCC12C (stereo not drawn) [Taurolithocholic acid]
22 | 2.95 | CC=C(C)C(=O)NCC(=O)O [Tiglyl Glycine]
23 | 0.842 | O=C(O)CC(CC(=O)O)C(=O)O [Tricarballylic acid]
24 | 6.91 | CCCCCCCCCCCCCCCCCCCCCCC(=O)O [Tricosanoic acid]
25 | 0.702 | O=c1cc[nH]c(=O)[nH]1 [URACIL]
26 | 0.774 | O=c1[nH]c(=O)c2[nH]c(=O)[nH]c2[nH]1 [URATE]
27 | 0.933 | O=c1[nH]c(=O)c2[nH]cnc2[nH]1 [XANTHINE]
28 | 0.695 | O=c1[nH]c(=O)c2ncn(C3OC(COP(=O)(O)O)C(O)C3O)c2[nH]1 (stereo not drawn) [XANTHOSINE-MONOPHOSPHATE]
29 | 1.47 | O=c1[nH]c(=O)c2ncn(C3OC(CO)C(O)C3O)c2[nH]1 (stereo not drawn) [XANTHOSINE]
30 | 3.14 | O=C(O)c1cc(=O)c2cccc(O)c2[nH]1 [Xanthurenic acid]
31 | 5.15 | CCCCCCCCCC(O)CC(=O)OC(CC(=O)[O-])C[N+](C)(C)C [[(3R)-3-Hydroxydodecanoyl]-L-carnitine]
32 | 5.77 | CCCCCCCCCCCCCC(O)CC(=O)OC(CC(=O)[O-])C[N+](C)(C)C [[(3R)-3-Hydroxyhexadecanoyl]-L-carnitine]
33 | 6.7 | CCCCCC=CCC=CCC=CCC=CCC=CCCC(=O)O [all-cis-4,7,10,13,16-Docosapentaenoic acid]
34 | 6.56 | CCC=CCC=CCC=CCC=CC/C=C\CCCC(=O)O [cis-5,8,11,14,17-Eicosapentaenoic acid]
35 | 0.818 | O=C(O)C=C(CC(=O)O)C(=O)O [cis-Aconitic acid]
36 | 5.46 | CCCCCCCCCC=CC(=O)OC(CC(=O)[O-])C[N+](C)(C)C [trans-2-Dodecenoyl-L-carnitine]
37 | 6.61 | CCCCCC/C=C/CCCCCCCCCC(=O)O [trans-Vaccenic Acid]
38 | 1.26 | CC(C)C(=O)C(=O)O [α-Keto Isovaleric Acid Sodium Salt]
39 | 0.722 | O=C(O)CCC(=O)C(=O)O [α-Ketoglutaric acid]
40 | 6.54 | CCCCCC=CCC=CCC=CCCCCC(=O)O [γ-Linolenic acid]

Further lines, the compound ahead of its results:

Row | Compound | LC retention time [min]
41 | CCC(C)C(=O)NCC(=O)O (stereo not drawn) [N-(2-Methylbutyryl)glycine] | 2.83
42 | O=C(O)CNC(=O)C=Cc1ccccc1 [N-(CINNAMOYL)GLYCINE] | 4.42
43 | CC(=O)NC(C)C(=O)O (stereo not drawn) [N-ACETYLALANINE] | 1.05
44 | CC(=O)NC(CC(N)=O)C(=O)O (stereo not drawn) [N-ACETYLASPARAGINE] | 0.702
45 | CC(=O)NC(CC(C)C)C(=O)O (stereo not drawn) [N-ACETYLLEUCINE] | 3.63
46 | CSCCC(NC(C)=O)C(=O)O (stereo not drawn) [N-ACETYLMETHIONINE] | 3.04
47 | CC(=O)NC(Cc1ccccc1)C(=O)O (stereo not drawn) [N-ACETYLPHENYLALANINE] | 4.06
48 | CC(=O)NCCc1c[nH]c2ccc(O)cc12 [N-ACETYLSEROTONIN] | 3.58
49 | CC(=O)NC(Cc1c[nH]c2ccccc12)C(=O)O (stereo not drawn) [N-ACETYLTRYPTOPHAN] | 4.12
50 | CC(=O)N[C@@H](CC(=O)O)C(=O)O [N-Acetyl-L-aspartic acid] | 0.77
51 | CC(=O)N[C@@H](Cc1ccc(O)cc1)C(=O)O [N-Acetyl-L-tyrosine] | 2.88
52 | NC(=O)c1ccc[n+](C2OC(COP(=O)([O-])OP(=O)(O)OCC3OC(n4cnc5c(N)ncnc54)C(OP(=O)(O)O)C3O)C(O)C2O)c1 (stereo not drawn) [NADP] | 0.746
53 | CCCCCCCCC=CCCCCCCCCCCCCCC(=O)O [Nervonic acid] | 6.93
54 | CCN(Cc1ccc(Cl)nc1)C(=C[N+](=O)[O-])NC [Nitenpyram] | 3.63
55 | CCCCCCCCCCCCCCCCCCC(=O)O [Nonadecanoic acid] | 6.72
56 | CC(CC(=O)O)C1CCC2C3CCC4CC(O)CCC4(C)C3CC(O)C12C (stereo not drawn) [Nor-Desoxycholic Acid] | 6.24
57 | CC(CCC(=O)O)C1CCC2C3C(=O)CC4CC(O)CCC4(C)C3CCC12C (stereo not drawn) [Nutriacholic Acid] | 6.42

Row | Compound | LC retention time [min]
58 | CCCCCCCCCCCCCCCCCCCCCCCCCCCC(=O)O [Octacosanoic acid] | 7.08
59 | Cn1c(=O)[nH]c2ncn(C)c2c1=O [PARAXANTHINE] | 3.54
60 | CCCCCCCCCCCC=CCCCCC(=O)O [PETROSELINATE] | 6.63
61 | CC(=O)Oc1ccccc1 [PHENYL ACETATE] | 2.46
62 | O=C(O)Cc1ccccc1 [PHENYLACETATE] | 2.46
63 | CC(=O)C1CCC2C3CC=C4CC(OS(=O)(=O)O)CCC4(C)C3CCC12C (stereo not drawn) [PREGNENOLONE SULFATE] | 6.51
64 | c1ncc2[nH]cnc2n1 [PURINE] | 1.29
65 | O=C(O)c1ccc[nH]1 [PYRROLE-2-CARBOXYLATE] | 3.3
66 | CCCCCCCCCCCCCCCC(=O)O [Palmitic acid] | 6.54
67 | CCCCCCCCCCCCCCCCCCCCCCCCC(=O)O [Pentacosanoic Acid] | 6.98
68 | C#CC(C)(C)NC(=O)c1cc(Cl)cc(Cl)c1 [Propyzamide] | 5.6
69 | C=CCNC(=O)c1c([Si](C)(C)C)sc(C)c1C [Silthiofam] | 6
70 | Cc1nn(-c2cc(NS(C)(=O)=O)c(Cl)cc2Cl)c(=O)n1C(F)F [Sulfentrazone] | 5.29
71 | CCc1ccc(C(=O)NN(C(=O)c2cc(C)cc(C)c2)C(C)(C)C)cc1 [Tebufenozide] | 6.04
72 | O=C(Nc1ccccc1)Nc1cnns1 [Thidiazuron] | 4.75
73 | CC1(C)CCC(=Cc2ccc(Cl)cc2)C1(O)Cn1cncn1 (stereo not drawn) [Triticonazole] | 5.93
